e = 2'-O-(2-methoxyethyl) (MOE); d = 2'-deoxy (DNA)
System: Drosha mRNA
Assay: Antisense activity by RT-qPCR, Drosha, A431 cells
Format: cell-based, Human
Method: A431 cells were grown at 10,000 cells per well and pre-treated with a variety of growth factors to determine if the addition of exogenous growth factors affects antisense activity or uptake of modified antisense oligonucleotides in a cell. The growth factors used were EGF, insulin growth factor (IGF), transforming growth factor (TGF), […] (VEGF), hepatocyte growth factor (HGF), platelet growth factor (PGF) and fibroblasts growth factor (FGF). To test antisense activity, cells were treated for 4 hours with a growth factor or vehicle alone, and then treated with compound no. 25690 (complementary to Drosha), compound no. 395254 (complementary to Malat1), or vehicle alone. RNA was isolated from the cells and Drosha or Malat1 RNA levels were measured by RT-qPCR. Human primer probe set 13816 (forward sequence […], designated herein as SEQ ID NO: 3; reverse sequence […], designated herein as SEQ ID NO: 4; probe sequence […], designated herein as SEQ ID NO: 5) was used to measure Drosha mRNA levels and primer probe set RTS2736 (forward sequence […], designated herein as SEQ ID NO: 6; reverse sequence […], designated herein as SEQ ID NO: 7; probe sequence TGCCACATCGCCACCCCGT, designated herein as SEQ ID NO: 8) was used to measure Malat1 RNA levels. Drosha and Malat1 RNA levels were normalized to total RNA content, as measured by RIBOGREEN®. Results are presented in the tables below as normalized RNA levels, relative to untreated control cells.
A431 cells were treated with EGF or TGF at 200 ng/mL in the presence or absence of 1 μM of the EGFR tyrosine kinase inhibitor PD174265. The cells were then treated with compound no. 25690 or compound no. 395254 as in Example 8. Total RNA was isolated and analyzed by RT-qPCR, as in Example 8.
Following siRNA treatment, cells were treated with compound no. 25690 or compound no. 395254 in the presence or absence of EGF. 16 hours after treatment with a PS-ASO with or without EGF, cells were harvested, and RNA levels were analyzed via RT-qPCR as in Example 8.

AGGAAGGAAGCTGGCGATCT (sugars from the 5' end e5 d10 e5, all phosphorothioate, methylation of C not given here) [compound 25690]
Drosha mRNA (% Control) (19.5 nM, Control): 100.0 % Control
Drosha mRNA (% Control) (19.5 nM, EGF): 100.0 % Control
Drosha mRNA (% Control) (19.5 nM, TGF): 100.0 % Control
Drosha mRNA (% Control) (39 nM, Control): 104.3 % Control
Drosha mRNA (% Control) (39 nM, EGF): 98.0 % Control
Drosha mRNA (% Control) (39 nM, TGF): 95.1 % Control
Drosha mRNA (% Control) (78 nM, Control): 100.3 % Control
Drosha mRNA (% Control) (78 nM, EGF): 98.0 % Control
Drosha mRNA (% Control) (78 nM, TGF): 80.2 % Control
Drosha mRNA (% Control) (97.7 nM, Control): 100.0 % Control
Drosha mRNA (% Control) (97.7 nM, Control Luciferase siRNA): 100.0 % Control
Drosha mRNA (% Control) (97.7 nM, Control Luciferase siRNA, Table 26): 100.0 % Control
Drosha mRNA (% Control) (97.7 nM, Control luciferase + EGF): 100.0 % Control
Drosha mRNA (% Control) (97.7 nM, Control, Table 20): 100.0 % Control
Drosha mRNA (% Control) (97.7 nM, EGF): 100.0 % Control
Drosha mRNA (% Control) (97.7 nM, EGF+PD174265): 100.0 % Control
Drosha mRNA (% Control) (97.7 nM, EGFR siRNA-1): 100.0 % Control
Drosha mRNA (% Control) (97.7 nM, EGFR siRNA-2): 100.0 % Control
Drosha mRNA (% Control) (97.7 nM, EGFR siRNA-2 + EGF): 100.0 % Control
Drosha mRNA (% Control) (97.7 nM, EGFR siRNA-2, Table 26): 100.0 % Control
Drosha mRNA (% Control) (97.7 nM, TGF): 100.0 % Control
Drosha mRNA (% Control) (97.7 nM, TGF+PD174265): 100.0 % Control
Drosha mRNA (% Control) (156.25 nM, Control): 103.8 % Control
Drosha mRNA (% Control) (156.25 nM, EGF): 70.7 % Control
Drosha mRNA (% Control) (156.25 nM, TGF): 64.6 % Control
Drosha mRNA (% Control) (195 nM, Control): 110.0 % Control
Drosha mRNA (% Control) (195 nM, Control Luciferase siRNA): 81.4 % Control
Drosha mRNA (% Control) (195 nM, Control Luciferase siRNA, Table 26): 99.2 % Control
Drosha mRNA (% Control) (195 nM, Control luciferase + EGF): 110.2 % Control
Drosha mRNA (% Control) (195 nM, Control, Table 20): 110.0 % Control
Drosha mRNA (% Control) (195 nM, EGF): 98.2 % Control
Drosha mRNA (% Control) (195 nM, EGF+PD174265): 102.4 % Control
Drosha mRNA (% Control) (195 nM, EGFR siRNA-1): 103.0 % Control
Drosha mRNA (% Control) (195 nM, EGFR siRNA-2): 88.0 % Control
Drosha mRNA (% Control) (195 nM, EGFR siRNA-2 + EGF): 107.2 % Control
Drosha mRNA (% Control) (195 nM, EGFR siRNA-2, Table 26): 105.2 % Control
Drosha mRNA (% Control) (195 nM, TGF): 95.2 % Control
Drosha mRNA (% Control) (195 nM, TGF+PD174265): 108.0 % Control
Drosha mRNA (% Control) (312.5 nM, Control): 92.7 % Control
Drosha mRNA (% Control) (312.5 nM, EGF): 72.8 % Control
Drosha mRNA (% Control) (312.5 nM, TGF): 61.1 % Control
Drosha mRNA (% Control) (391 nM, Control): 99.7 % Control
Drosha mRNA (% Control) (391 nM, Control Luciferase siRNA): 67.0 % Control
Drosha mRNA (% Control) (391 nM, Control Luciferase siRNA, Table 26): 100.0 % Control
Drosha mRNA (% Control) (391 nM, Control luciferase + EGF): 100.0 % Control
Drosha mRNA (% Control) (391 nM, Control, Table 20): 99.3 % Control
Drosha mRNA (% Control) (391 nM, EGF): 89.4 % Control
Drosha mRNA (% Control) (391 nM, EGF+PD174265): 103.3 % Control
Drosha mRNA (% Control) (391 nM, EGFR siRNA-1): 78.9 % Control
Drosha mRNA (% Control) (391 nM, EGFR siRNA-2): 83.1 % Control
Drosha mRNA (% Control) (391 nM, EGFR siRNA-2, Table 26): 100.0 % Control
Drosha mRNA (% Control) (391 nM, TGF): 85.2 % Control
Drosha mRNA (% Control) (391 nM, TGF+PD174265): 91.2 % Control
Drosha mRNA (% Control) (625 nM, Control): 90.9 % Control
Drosha mRNA (% Control) (625 nM, EGF): 57.2 % Control
Drosha mRNA (% Control) (625 nM, TGF): 50.8 % Control
Drosha mRNA (% Control) (781 nM, Control): 88.4 % Control
Drosha mRNA (% Control) (781 nM, Control Luciferase siRNA): 56.6 % Control
Drosha mRNA (% Control) (781 nM, Control Luciferase siRNA, Table 26): 77.5 % Control
Drosha mRNA (% Control) (781 nM, Control luciferase + EGF): 60.8 % Control
Drosha mRNA (% Control) (781 nM, Control, Table 20): 87.2 % Control
Drosha mRNA (% Control) (781 nM, EGF): 81.4 % Control
Drosha mRNA (% Control) (781 nM, EGF+PD174265): 83.6 % Control
Drosha mRNA (% Control) (781 nM, EGFR siRNA-1): 62.3 % Control
Drosha mRNA (% Control) (781 nM, EGFR siRNA-2): 64.8 % Control
Drosha mRNA (% Control) (781 nM, EGFR siRNA-2 + EGF): 98.4 % Control
Drosha mRNA (% Control) (781 nM, EGFR siRNA-2, Table 26): 89.8 % Control
Drosha mRNA (% Control) (781 nM, TGF): 67.2 % Control
Drosha mRNA (% Control) (781 nM, TGF+PD174265): 87.2 % Control
Drosha mRNA (% Control) (1250 nM, Control): 75.7 % Control
Drosha mRNA (% Control) (1250 nM, EGF): 52.8 % Control
Drosha mRNA (% Control) (1250 nM, TGF): 43.4 % Control
Drosha mRNA (% Control) (1563 nM, Control): 83.2 % Control
Drosha mRNA (% Control) (1563 nM, Control Luciferase siRNA): 49.2 % Control
Drosha mRNA (% Control) (1563 nM, Control Luciferase siRNA, Table 26): 70.2 % Control
Drosha mRNA (% Control) (1563 nM, Control luciferase + EGF): 57.6 % Control
Drosha mRNA (% Control) (1563 nM, Control, Table 20): 76.3 % Control
Drosha mRNA (% Control) (1563 nM, EGF): 74.7 % Control
Drosha mRNA (% Control) (1563 nM, EGF+PD174265): 68.9 % Control
Drosha mRNA (% Control) (1563 nM, EGFR siRNA-1): 56.0 % Control
Drosha mRNA (% Control) (1563 nM, EGFR siRNA-2): 61.4 % Control
Drosha mRNA (% Control) (1563 nM, EGFR siRNA-2 + EGF): 79.4 % Control
Drosha mRNA (% Control) (1563 nM, EGFR siRNA-2, Table 26): 80.3 % Control
Drosha mRNA (% Control) (1563 nM, TGF): 65.9 % Control
Drosha mRNA (% Control) (1563 nM, TGF+PD174265): 78.7 % Control
Drosha mRNA (% Control) (2500 nM, Control): 63.6 % Control
Drosha mRNA (% Control) (2500 nM, EGF): 42.8 % Control
Drosha mRNA (% Control) (2500 nM, TGF): 40.1 % Control
Drosha mRNA (% Control) (3125 nM, Control): 66.6 % Control
Drosha mRNA (% Control) (3125 nM, Control Luciferase siRNA): 40.7 % Control
Drosha mRNA (% Control) (3125 nM, Control Luciferase siRNA, Table 26): 61.6 % Control
Drosha mRNA (% Control) (3125 nM, Control luciferase + EGF): 40.8 % Control
Drosha mRNA (% Control) (3125 nM, Control, Table 20): 67.2 % Control
Drosha mRNA (% Control) (3125 nM, EGF): 55.9 % Control
Drosha mRNA (% Control) (3125 nM, EGF+PD174265): 62.7 % Control
Drosha mRNA (% Control) (3125 nM, EGFR siRNA-1): 51.4 % Control
Drosha mRNA (% Control) (3125 nM, EGFR siRNA-2): 54.6 % Control
Drosha mRNA (% Control) (3125 nM, EGFR siRNA-2 + EGF): 75.4 % Control
Drosha mRNA (% Control) (3125 nM, EGFR siRNA-2, Table 26): 70.6 % Control
Drosha mRNA (% Control) (3125 nM, TGF): 47.2 % Control
Drosha mRNA (% Control) (3125 nM, TGF+PD174265): 64.2 % Control
Drosha mRNA (% Control) (5000 nM, Control): 47.6 % Control
Drosha mRNA (% Control) (5000 nM, EGF): 33.0 % Control
Drosha mRNA (% Control) (5000 nM, TGF): 31.9 % Control
